Assay results from patent US20260240926A1, “METHOD OF MAKING A PROBIOTIC FERMENTED PRODUCT” (UNIVERSITY OF SOUTH FLORIDA, priority 2023, published 2026).

System: C57BL/6 mice
Experiment: Chemotherapy (5-FU) induced dysbiosis model in C57BL/6 mice
Type: in vivo
Conditions: 5-FU alone
Method: Based on previous studies, a model of chemotherapy induced dysbiosis in C57BL/6 mice using 5-Fluorouracil (5-FU) chemotherapy was established. 5-FU accelerated body weight loss (FIG. 16A), reduced microbiome diversity (FIG. 16B), increased gut permeability (FIG. 16C), damaged intestinal villi in the ileum (FIG. 16D), and impaired cognitive function (FIG. 16E). […] It was determined where the PFM has more significant protective effects compared to non-fermented probiotics (same four strains suspended in saline, instead of fermented in milk).

O=c1[nH]cc(F)c(=O)[nH]1 [5-FU, 5-Fluorouracil]
body weight loss: accelerated | cognitive function: impaired | intestinal villi in the ileum: damaged | microbiome diversity: reduced
